Measured values from patent publication EP3445348B1, “FLUORESCENT COMPOUNDS, PRODUCTION METHODS AND USES THEREOF” (Universidade de Aveiro, priority 2016, dated 2017).

Tests used:
HeLa cells = assay: Resazurin metabolic cell viability assay, HeLa cells; format: cell-based; details: Human HeLa live cells, 24h, 1×10^-5 mol.L^-1
Text: (§1) The following figures provide preferred embodiments for the present disclosure and should not be seen as limiting the scope of the disclosure. • Figure 1: Scheme of the fluorophore precursors synthesis. • Figure 2: Synthesis of the fluorophores. • Figure 3: Absorption and emission spectra of some of the fluorophores in a dichloromethane (DCM) solution wherein black squares represent the absorption of (1E,4E)-1,5-bis[4-(dimethylamino)phenyl]penta-1,4-dien-3-one; black circles represent the absorption of (2E,6E)-2,6-bis[4-(dimethylamino)benzylidene]cyclohexanone; black diamonds represent the absorption of 2,6-bis[3-bromo-4-(dimethylamino)benzylidene]cyclohexanone; black triangles pointing up represent the absorption of (1E,4E)-1,5-bis[3-bromo-4-(dimethylamino)phenyl]penta-1,4-dien-3-one; black triangles pointing down represent the absorption of (1E,4E)-1,5-bis[3-chloro-4-(dimethylamino)phenyl]penta-1,4-dien-3-one; black stars represent the absorption of 2,6-bis[3-chloro-4-(dimethylamino)benzylidene]cyclohexanone; open squares represent the emission of (1E,4E)-1,5-bis[4-(dimethylamino)phenyl]penta-1,4-dien-3-one; open circles represent the emission of (2E,6E)-2,6-bis[4-(dimethylamino)benzylidene]cyclohexanone; open diamonds represent the emission of 2,6-bis[3-bromo-4-(dimethylamino)benzylidene]cyclohexanone; open triangles pointing up represent the absorption of (1E,4E)-1,5-bis[3-bromo-4-(dimethylamino)phenyl]penta-1,4-dien-3-one; open triangles pointing down represent the absorption of (1E,4E)-1,5-bis[3-chloro-4-(dimethylamino)phenyl]penta-1,4-dien-3-one; open stars represent the absorption of 2,6-bis[3-chloro-4-(dimethylamino)benzylidene]cyclohexanone. • Figure 4: Sample distributions of two cyclic fluorophores: (2E,6E)-2,6-bis[3-bromo-4-(dimethylamino)benzylidene]cyclohexanone labelled as cyclic-Br and (2E,6E)-2,6-bis[3-chloro-4-(dimethylamino)benzylidene]cyclohexanone labelled as cyclic-Cl (orange pseudocolour) in HeLa cells cultured on coverslips and incubated alive and for 1h with 10^-5 mol.L^-1 of the compounds. The laser line 458 nm was used to excite and the confocal Zeiss LSM-510 META 415 to 750 nm detector used to detect the fluorophores. The nuclear DAPI is used as a counterstaining dye. • Figure 5: Co-localization of the compounds (1E,4E)-1,5-bis[4-(dimethylamino)phenyl]penta-1,4-dien-3-one, labelled as linear-H and (2E,6E)-2,6-bis[3-chloro-4-(dimethylamino)benzylidene]cyclohexanone, labelled as cyclic-Cl with the Trans-Golgi Network (TGN) marker Syntaxin-6, which was Texas Red (red colour) and Alexa-405 (cyan pseudocolour) labelled by using secondary antibodies. DAPI (blue colour) was used as nuclear marker. HeLa cells were incubated in particular for 1h with 1-2×10^-5 mol.L^-1 of the fluorophores, before being fixed. The laser line 405 nm, in particular at 10-20% of its power was used to excite the fluorophores. […] A. Cell viability was determined using the metabolic Resazurin assay, and data (resazurin final O.D.±SD of four independent experiments) presented graphically as percentages of control cells (not incubated with the compounds), wherein the control is labelled as Ctrl; (1E,4E)-1,5-bis[4-(dimethylamino)phenyl]penta-1,4-dien-3-one is labelled as L-H; (1E,4E)-1,5-bis[3-chloro-4-(dimethylamino)phenyl]penta-1,4-dien-3-one is labelled as L-Cl; (1E,4E)-1,5-bis[3-bromo-4-(dimethylamino)phenyl]penta-1,4-dien-3-one is labelled as L-Br; (2E,6E)-2,6-bis[4-(dimethylamino)benzylidene]cyclohexanone labelled is labelled as C-H; 2,6-bis[3-chloro-4-(dimethylamino)benzylidene]cyclohexanone is labelled as C-Cl; 2,6-bis[3-bromo-4-(dimethylamino)benzylidene]cyclohexanone is labelled as C-Br. Statistical significance using the student-t test: *p<0.05; **p<0.01. B. Microphotograph of Cyclic-Cl distribution in HeLa and MC3T3 cells upon 24h of exposure to the compounds. Microscope settings used: a 40×/1.3 oil objective; HFT 405/488/633; in particular a 405 nm laser line at 40% of its power. […]

MC3T3 live cells = assay: Resazurin metabolic cell viability assay, MC3T3 cells; format: cell-based, rat; details: 24h, 1×10^-5 mol.L^-1
Text: as §1

[1] = comparison compound; cited from earlier work

Row | Compound | cytotoxicity (cell viability, resazurin reduction) (HeLa cells) | cytotoxicity (cell viability, resazurin reduction) (MC3T3 live cells) | storage stability [1]
1 | CN(C)c1ccc(/C=C2\CCC/C(=C\c3ccc(N(C)C)c(Br)c3)C2=O)cc1Br [cyclic-Br, (2E,6E)-2,6-bis[3-bromo-4-(dimethylamino)benzylidene]cyclohexanone] | not cytotoxic | not cytotoxic | –
2 | CCN(CC)c1ccc2nc3c4ccccc4c(=O)cc-3oc2c1 [Nile Red, 9-diethylamino-5H-benzo[a]phenoxazine-5-one] | – | – | stable if kept at -20 °C
3 | CN(C)c1ccc(/C=C/C(=O)/C=C/c2ccc(N(C)C)c(Br)c2)cc1Br [linear-Br, (1E,4E)-1,5-bis[3-bromo-4-(dimethylamino)phenyl]penta-1,4-dien-3-one] | not cytotoxic | not cytotoxic | –
4 | CN(C)c1ccc(/C=C/C(=O)/C=C/c2ccc(N(C)C)c(Cl)c2)cc1Cl [linear-Cl, (1E,4E)-1,5-bis[3-chloro-4-(dimethylamino)phenyl]penta-1,4-dien-3-one] | not cytotoxic | not cytotoxic | –
5 | CN(C)c1ccc(/C=C2\CCC/C(=C\c3ccc(N(C)C)cc3)C2=O)cc1 [cyclic-H, (2E,6E)-2,6-bis[4-(dimethylamino)benzylidene]cyclohexanone] | not cytotoxic | not cytotoxic | –
6 | CN(C)c1ccc(/C=C/C(=O)/C=C/c2ccc(N(C)C)cc2)cc1 [linear-H, (1E,4E)-1,5-bis[4-(dimethylamino)phenyl]penta-1,4-dien-3-one] | not cytotoxic | not cytotoxic | –
7 | CN(C)c1ccc(/C=C2\CCC/C(=C\c3ccc(N(C)C)c(Cl)c3)C2=O)cc1Cl [cyclic-Cl, (2E,6E)-2,6-bis[3-chloro-4-(dimethylamino)benzylidene]cyclohexanone] | not cytotoxic | not cytotoxic | –
